Publication PMC12186844 (ACS Chemical Neuroscience, 2025)
Read-outs that look alike come from different tables or passages of the source.

Assays:
D2LR = D2LR (Homo sapiens, UniProt P14416); assay: cell membrane [3H]raclopride binding assay; conditions: for Logα_DA / α′_DA: cooperativity with DA
SNAP-D2SR T398^7.54A = SNAP-D2SR T398^7.54A (Homo sapiens, UniProt P14416, T427A); assay: functional cAMP assay, BRET biosensor; assay type: cell-based; design: expressed in transfected cells
Description: (§1) Flp-In-CHO cells stably coexpressing the CAMYEL biosensor and DRs were plated into white 96-well CulturPlates (Revvity) and grown overnight. The cells were equilibrated in Hank’s balanced salt solution (HBSS) at 37 °C (or 25 °C when indicated) before starting the experiment. The cells were costimulated with the agonists and 10 μM forskolin for the indicated time frames when the BRET readings were captured. Coelenterazine (Nanolight Technology, AZ) was added at a final concentration of 5 μM at least 3 min prior to measurement. […] Net BRET was determined by subtraction of the vehicle control coadded with 10 μM forskolin.
(§2) Dose–response curves were fitted using the following three-parameter equation: response=bottom+top−bottom/1+10^(logEC50−log[A]) 5 where top and bottom represent the maximal and minimal asymptote of the dose response curve, [A] is the molar concentration of the agonist, and EC50 is the molar concentration of the agonist required to give a response half-way between bottom and top.

SNAP-D2SR D80^2.50A = SNAP-D2SR D80^2.50A (Homo sapiens, UniProt P14416, D80A); assay: functional cAMP assay, BRET biosensor; assay type: cell-based
Description: as §1, §2

D3R = D3R (Homo sapiens, UniProt P35462); assay: cell membrane [3H]raclopride binding assay
Description: Flp-In-CHO cells stably expressing the wild-type or mutant DRs were grown to 90% confluence in 175 cm^2 cell culture flasks. The cells were harvested in PBS containing 2 mM EDTA and centrifuged at 300g for 3 min. The resulting pellet was resuspended in ice-cold assay buffer (20 mM HEPES, 100 mM NaCl, 6 mM MgCl2, 1 mM EGTA, and 1 mM EDTA, pH 7.4), and the centrifugation step was repeated. The intact cell pellet was then resuspended in assay buffer and homogenized using a Polytron homogenizer. After centrifugation (1000g, 10 min), the pellet was discarded, and the supernatant was recentrifuged at 30,000g for 1 h at 4 °C using a Sorvall Evolution RC ultracentrifuge (Thermo Scientific). The resulting pellet was resuspended in assay buffer and stored in 250 μL aliquots at −80 °C. Membrane protein concentration was determined using a Pierce’s BCA protein assay kit (Thermo Fisher, Melbourne).
[^3H]­Spiperone binding experiments using cell membranes were conducted in a 200 μL reaction volume in assay buffer (20 mM HEPES, 100 mM NaCl, 6 mM MgCl2, 1 mM EGTA, and 1 mM EDTA, pH 7.4) containing 100 μM GppNHp and 0.1% ascorbic acid in 96-well plates. […] In all cases, nonspecific binding was determined in the presence of 10 μM haloperidol. To obtain affinity estimates of unlabeled agonists, competition binding experiments were performed at equilibrium. […] After this incubation period, bound and free radioligands were separated by fast-flow filtration through UniFilter-96 GF/B plates using a MicroBeta FilterMate harvester (Revvity) followed by three washes with ice-cold 0.9% NaCl. Filter bound radioactivity was detected as a chemiluminescence after the addition of MicroScint-20 (Revvity) in a MicroBeta plate counter (Revvity).

SNAP-D2SR L94^2.64A = SNAP-D2SR L94^2.64A (Homo sapiens, UniProt P14416, L94A); assay: functional cAMP assay, BRET biosensor; assay type: cell-based
Description: Flp-In-CHO cells stably coexpressing the CAMYEL biosensor and DRs were plated into white 96-well CulturPlates (Revvity) and grown overnight. The cells were equilibrated in Hank’s balanced salt solution (HBSS) at 37 °C (or 25 °C when indicated) before starting the experiment. The cells were costimulated with the agonists and 10 μM forskolin for the indicated time frames when the BRET readings were captured. Coelenterazine (Nanolight Technology, AZ) was added at a final concentration of 5 μM at least 3 min prior to measurement. […] Net BRET was determined by subtraction of the vehicle control coadded with 10 μM forskolin. For phenoxybenzamine alkylation experiments, the cells were treated with 0.1, 0.3, or 1 μM phenoxybenzamine (Sigma-Aldrich) diluted in HBSS and equilibrated at 37 °C for 30 min prior to the commencement of the assay.
as §2

[1] = +0.1 mM GppNHp, cooperativity with [3H]raclopride
[2] = +PTX, cooperativity with [3H]raclopride
[3] = +urea, cooperativity with [3H]raclopride

Sequence of SNAP-D2SR D80^2.50A (P14416 1-414 isoform P14416-2 D80A): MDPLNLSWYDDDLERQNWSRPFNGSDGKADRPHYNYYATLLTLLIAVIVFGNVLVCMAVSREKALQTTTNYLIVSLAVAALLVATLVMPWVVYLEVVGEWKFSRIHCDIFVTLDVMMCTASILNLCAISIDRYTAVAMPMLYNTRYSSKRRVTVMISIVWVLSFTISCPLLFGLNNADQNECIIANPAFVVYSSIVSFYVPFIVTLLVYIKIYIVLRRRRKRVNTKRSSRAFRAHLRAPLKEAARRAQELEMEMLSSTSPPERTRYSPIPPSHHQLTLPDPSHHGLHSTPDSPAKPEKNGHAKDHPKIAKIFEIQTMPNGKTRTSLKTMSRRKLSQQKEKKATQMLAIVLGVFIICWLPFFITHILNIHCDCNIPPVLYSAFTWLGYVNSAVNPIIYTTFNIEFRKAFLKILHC
Sequence of SNAP-D2SR T398^7.54A (P14416 1-414 isoform P14416-2 T398A): as the sequence (P14416 1-414 isoform P14416-2 D80A) above, with A80D, T398A counted along it
Sequence of D2LR (P14416 whole entry): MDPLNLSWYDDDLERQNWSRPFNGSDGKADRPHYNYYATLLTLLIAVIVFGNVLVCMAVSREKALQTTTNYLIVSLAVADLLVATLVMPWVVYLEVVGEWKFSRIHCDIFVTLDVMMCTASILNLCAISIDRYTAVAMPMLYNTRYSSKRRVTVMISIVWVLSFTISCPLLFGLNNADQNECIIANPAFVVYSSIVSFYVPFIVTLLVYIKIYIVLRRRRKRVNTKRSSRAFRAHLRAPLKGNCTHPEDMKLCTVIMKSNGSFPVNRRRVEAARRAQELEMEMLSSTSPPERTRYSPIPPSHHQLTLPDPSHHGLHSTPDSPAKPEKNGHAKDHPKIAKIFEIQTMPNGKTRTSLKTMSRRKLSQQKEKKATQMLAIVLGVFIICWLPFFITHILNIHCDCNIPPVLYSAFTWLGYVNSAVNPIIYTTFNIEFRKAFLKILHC
Sequence of SNAP-D2SR L94^2.64A (P14416 1-414 isoform P14416-2 L94A): as the sequence (P14416 1-414 isoform P14416-2 D80A) above, with A80D, L94A counted along it
Sequence of D3R (P35462 whole entry): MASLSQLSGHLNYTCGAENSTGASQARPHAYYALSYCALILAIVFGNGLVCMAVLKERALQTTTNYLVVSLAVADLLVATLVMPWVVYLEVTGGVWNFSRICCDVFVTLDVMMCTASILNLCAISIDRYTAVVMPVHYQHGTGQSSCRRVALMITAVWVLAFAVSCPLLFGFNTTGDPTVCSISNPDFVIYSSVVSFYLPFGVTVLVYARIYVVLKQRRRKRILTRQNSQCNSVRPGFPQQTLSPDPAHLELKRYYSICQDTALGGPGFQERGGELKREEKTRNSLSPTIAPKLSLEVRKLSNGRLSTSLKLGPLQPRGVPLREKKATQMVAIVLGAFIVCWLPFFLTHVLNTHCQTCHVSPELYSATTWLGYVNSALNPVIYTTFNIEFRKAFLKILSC

fold lower affinity in cell membranes than in whole cell binding (D2LR): 4 fold
pKB_D2 PAM (D2LR; +0.1 mM GppNHp): 4.65 ± 0.05
Logα_DA (D2LR; +0.1 mM GppNHp): 1.30 ± 0.02
α′_DA (D2LR; +0.1 mM GppNHp): 20
Logα_[3H]raclo (D2LR; [1]): –0.19 ± 0.05
α_[3H]raclo (D2LR; [1]): 0.65
Kb (D2LR; +0.1 mM GppNHp, read-out: KB_D2 PAM (converted)): 22.5 µM
pKB_D2 PAM (D2LR; +PTX): 4.54 ± 0.03
Logα_DA (D2LR; +PTX): 1.22 ± 0.07
α′_DA (D2LR; +PTX): 17
Logα_[3H]raclo (D2LR; [2]): –0.37 ± 0.10
α_[3H]raclo (D2LR; [2]): 0.42
Kb (D2LR; +PTX, read-out: KB_D2 PAM (converted)): 29 µM
pKB_D2 PAM (D2LR; +urea): 4.53 ± 0.15
Logα_DA (D2LR; +urea): 1.35 ± 0.12
α′_DA (D2LR; +urea): 22
Logα_[3H]raclo (D2LR; [3]): –0.06 ± 0.08
α_[3H]raclo (D2LR; [3]): 0.87
Kb (D2LR; +urea, read-out: KB_D2 PAM (converted)): 30 µM
logα_DA (D2LR; D2LR): 1.30 ± 0.02
logα_[3H]raclo (D2LR; D2LR): -0.19 ± 0.05
α_DA (D2LR; D2LR): 20
α_[3H]raclo (D2LR; D2LR): 0.64
Kb (D2LR; cell membrane preparations, read-out: KB): 22 µM
D2 PAM2 log τ (SNAP-D2SR T398^7.54A): –1.40 ± 0.22
D2 PAM2 pKB (SNAP-D2SR T398^7.54A): 5.35 ± 0.17
D2 PAM2 τ (SNAP-D2SR T398^7.54A): 0.04
fold decrease in cooperativity with DA (SNAP-D2SR T398^7.54A; cAMP): 6 fold
Kb (SNAP-D2SR T398^7.54A; read-out: D2 PAM2 KB (converted)): 4 µM
D2 PAM2 log αβ (SNAP-D2SR T398^7.54A; with DA): 0.46 ± 0.05
D2 PAM2 αβ (SNAP-D2SR T398^7.54A; with DA): 2.9
D2 PAM2 log τ (SNAP-D2SR D80^2.50A): –0.78 ± 0.25
D2 PAM2 pKB (SNAP-D2SR D80^2.50A): 4.82 ± 0.18
D2 PAM2 τ (SNAP-D2SR D80^2.50A): 0.17
D2 PAM2 log αβ (SNAP-D2SR D80^2.50A; with DA): 0.96 ± 0.25
D2 PAM2 αβ (SNAP-D2SR D80^2.50A; with DA): 9.0
Kb (D3R): 17 µM
logα_DA (D3R): 0.98 ± 0.02
logα_[3H]raclo (D3R): -0.14 ± 0.04
pKB (D3R): 4.77 ± 0.14
α_DA (D3R): 9.5
α_[3H]raclo (D3R): 0.72
Kb (SNAP-D2SR L94^2.64A): 12.6 µM
Logτ (SNAP-D2SR L94^2.64A): -0.43 ± 0.07
pKB (SNAP-D2SR L94^2.64A): 4.90 ± 0.12
τ (SNAP-D2SR L94^2.64A): 0.37
Logαβ (SNAP-D2SR L94^2.64A; with DA): 1.54 ± 0.10
αβ (SNAP-D2SR L94^2.64A; with DA): 34.7
Structure (SMILES): COc1cc(CO)c(F)cc1C(=O)n1ccc2c(F)cccc21 [D2 PAM2, [5-fluoro-4-(hydroxymethyl)-2-methoxyphenyl]-(4-fluoro-1H-indol-1-yl)methanone]
